Key:
[1] = target: Platelet-derived growth factor receptor beta (Homo sapiens, UniProt P09619)
[2] = target: Fibroblast growth factor receptor 1 (Homo sapiens, UniProt P11362); assay: Inhibitory activity against Fibroblast growth factor receptor 1
[3] = target: Epidermal growth factor receptor (Homo sapiens, UniProt P00533)
[4] = target: Vascular endothelial growth factor receptor 2 (Homo sapiens, UniProt P35968)
Vascular endothelial growth factor receptor 2, sequence (P35968 whole entry): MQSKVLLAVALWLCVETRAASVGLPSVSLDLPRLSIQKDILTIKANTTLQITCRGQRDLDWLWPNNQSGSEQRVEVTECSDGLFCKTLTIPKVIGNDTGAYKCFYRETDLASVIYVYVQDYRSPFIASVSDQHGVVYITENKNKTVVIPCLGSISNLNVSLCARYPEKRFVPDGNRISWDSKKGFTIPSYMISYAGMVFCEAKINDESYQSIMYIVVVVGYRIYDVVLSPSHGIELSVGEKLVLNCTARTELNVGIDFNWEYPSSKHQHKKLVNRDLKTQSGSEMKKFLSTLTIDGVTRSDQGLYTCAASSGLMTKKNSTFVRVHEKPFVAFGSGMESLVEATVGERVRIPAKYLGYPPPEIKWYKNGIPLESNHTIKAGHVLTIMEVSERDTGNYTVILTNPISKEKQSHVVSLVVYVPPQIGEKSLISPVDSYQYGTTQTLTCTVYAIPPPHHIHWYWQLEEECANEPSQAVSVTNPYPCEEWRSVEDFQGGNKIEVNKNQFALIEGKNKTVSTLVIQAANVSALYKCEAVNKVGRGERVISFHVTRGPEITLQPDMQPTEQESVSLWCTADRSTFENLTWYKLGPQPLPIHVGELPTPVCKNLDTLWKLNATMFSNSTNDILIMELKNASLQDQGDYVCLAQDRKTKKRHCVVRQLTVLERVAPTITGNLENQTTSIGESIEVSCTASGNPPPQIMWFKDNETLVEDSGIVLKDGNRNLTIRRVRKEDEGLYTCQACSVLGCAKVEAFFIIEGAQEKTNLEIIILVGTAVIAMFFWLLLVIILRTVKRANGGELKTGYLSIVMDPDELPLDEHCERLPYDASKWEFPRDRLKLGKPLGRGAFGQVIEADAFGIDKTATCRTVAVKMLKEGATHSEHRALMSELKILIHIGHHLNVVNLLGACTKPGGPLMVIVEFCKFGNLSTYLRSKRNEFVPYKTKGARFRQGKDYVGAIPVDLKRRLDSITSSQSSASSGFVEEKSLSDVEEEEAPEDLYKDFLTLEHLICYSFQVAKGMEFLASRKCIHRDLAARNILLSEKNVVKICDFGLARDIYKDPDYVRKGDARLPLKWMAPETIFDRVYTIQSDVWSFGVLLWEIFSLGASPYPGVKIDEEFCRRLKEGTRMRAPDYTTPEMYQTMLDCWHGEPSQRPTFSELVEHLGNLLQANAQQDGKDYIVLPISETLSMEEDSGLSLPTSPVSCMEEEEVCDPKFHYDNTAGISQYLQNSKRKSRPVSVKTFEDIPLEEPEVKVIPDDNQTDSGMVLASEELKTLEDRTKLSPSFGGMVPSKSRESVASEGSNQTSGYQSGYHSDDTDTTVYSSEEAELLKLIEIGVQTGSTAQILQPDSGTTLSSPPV

Epidermal growth factor receptor, sequence (P00533 whole entry): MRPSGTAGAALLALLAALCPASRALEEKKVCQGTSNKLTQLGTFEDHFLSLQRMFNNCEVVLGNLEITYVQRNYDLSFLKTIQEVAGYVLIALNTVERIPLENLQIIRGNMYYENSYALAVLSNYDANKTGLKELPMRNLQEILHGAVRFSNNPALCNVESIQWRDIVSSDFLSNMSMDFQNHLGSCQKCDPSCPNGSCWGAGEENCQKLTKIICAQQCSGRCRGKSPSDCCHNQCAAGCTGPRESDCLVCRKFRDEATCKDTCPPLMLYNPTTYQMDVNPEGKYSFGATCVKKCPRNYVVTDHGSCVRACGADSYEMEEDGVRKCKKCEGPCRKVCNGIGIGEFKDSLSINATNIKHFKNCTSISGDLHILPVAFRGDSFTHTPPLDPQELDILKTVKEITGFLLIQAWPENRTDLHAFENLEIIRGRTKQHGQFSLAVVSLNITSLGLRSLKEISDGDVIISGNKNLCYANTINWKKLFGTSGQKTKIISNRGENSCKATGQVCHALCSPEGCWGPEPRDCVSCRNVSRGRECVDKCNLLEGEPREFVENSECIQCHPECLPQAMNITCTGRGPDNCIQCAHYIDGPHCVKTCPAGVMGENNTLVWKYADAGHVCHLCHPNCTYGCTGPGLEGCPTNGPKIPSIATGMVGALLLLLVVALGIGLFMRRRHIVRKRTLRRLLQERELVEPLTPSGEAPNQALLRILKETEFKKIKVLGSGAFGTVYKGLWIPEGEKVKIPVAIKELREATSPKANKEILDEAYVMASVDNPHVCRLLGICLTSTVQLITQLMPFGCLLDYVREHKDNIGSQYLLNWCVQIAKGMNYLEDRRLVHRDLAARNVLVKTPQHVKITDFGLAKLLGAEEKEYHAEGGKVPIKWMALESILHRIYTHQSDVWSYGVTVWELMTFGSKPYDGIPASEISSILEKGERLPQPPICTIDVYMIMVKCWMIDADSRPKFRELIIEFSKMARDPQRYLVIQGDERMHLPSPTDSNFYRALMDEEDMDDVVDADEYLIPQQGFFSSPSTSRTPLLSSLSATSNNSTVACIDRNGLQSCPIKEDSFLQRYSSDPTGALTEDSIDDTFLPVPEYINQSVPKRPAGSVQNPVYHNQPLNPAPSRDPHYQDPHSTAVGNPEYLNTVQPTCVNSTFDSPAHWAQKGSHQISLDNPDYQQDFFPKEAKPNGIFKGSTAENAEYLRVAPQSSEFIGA
Fibroblast growth factor receptor 1, sequence (P11362 whole entry): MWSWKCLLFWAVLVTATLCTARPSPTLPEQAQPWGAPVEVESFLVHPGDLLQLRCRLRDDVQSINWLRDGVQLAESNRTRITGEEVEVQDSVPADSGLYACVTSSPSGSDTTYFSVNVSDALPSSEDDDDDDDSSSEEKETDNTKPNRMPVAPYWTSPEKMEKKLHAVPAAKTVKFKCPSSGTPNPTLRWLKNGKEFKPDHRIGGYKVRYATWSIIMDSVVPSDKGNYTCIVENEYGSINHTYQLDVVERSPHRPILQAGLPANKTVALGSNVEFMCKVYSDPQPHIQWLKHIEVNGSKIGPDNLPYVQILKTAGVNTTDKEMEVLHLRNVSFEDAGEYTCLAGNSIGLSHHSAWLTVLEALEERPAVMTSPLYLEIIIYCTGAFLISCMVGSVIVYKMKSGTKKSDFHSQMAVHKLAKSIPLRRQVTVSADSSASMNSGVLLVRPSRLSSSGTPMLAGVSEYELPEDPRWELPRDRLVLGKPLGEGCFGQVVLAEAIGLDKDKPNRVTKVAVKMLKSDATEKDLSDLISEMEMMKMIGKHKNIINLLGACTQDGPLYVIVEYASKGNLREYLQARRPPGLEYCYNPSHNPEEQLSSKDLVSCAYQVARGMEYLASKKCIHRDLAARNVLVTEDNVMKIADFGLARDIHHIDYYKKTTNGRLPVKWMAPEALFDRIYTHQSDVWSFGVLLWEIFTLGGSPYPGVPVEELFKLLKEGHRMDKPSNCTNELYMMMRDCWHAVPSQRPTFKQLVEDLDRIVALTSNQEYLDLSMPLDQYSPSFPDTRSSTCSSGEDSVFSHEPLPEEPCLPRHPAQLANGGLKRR
Platelet-derived growth factor receptor beta, sequence (P09619 whole entry): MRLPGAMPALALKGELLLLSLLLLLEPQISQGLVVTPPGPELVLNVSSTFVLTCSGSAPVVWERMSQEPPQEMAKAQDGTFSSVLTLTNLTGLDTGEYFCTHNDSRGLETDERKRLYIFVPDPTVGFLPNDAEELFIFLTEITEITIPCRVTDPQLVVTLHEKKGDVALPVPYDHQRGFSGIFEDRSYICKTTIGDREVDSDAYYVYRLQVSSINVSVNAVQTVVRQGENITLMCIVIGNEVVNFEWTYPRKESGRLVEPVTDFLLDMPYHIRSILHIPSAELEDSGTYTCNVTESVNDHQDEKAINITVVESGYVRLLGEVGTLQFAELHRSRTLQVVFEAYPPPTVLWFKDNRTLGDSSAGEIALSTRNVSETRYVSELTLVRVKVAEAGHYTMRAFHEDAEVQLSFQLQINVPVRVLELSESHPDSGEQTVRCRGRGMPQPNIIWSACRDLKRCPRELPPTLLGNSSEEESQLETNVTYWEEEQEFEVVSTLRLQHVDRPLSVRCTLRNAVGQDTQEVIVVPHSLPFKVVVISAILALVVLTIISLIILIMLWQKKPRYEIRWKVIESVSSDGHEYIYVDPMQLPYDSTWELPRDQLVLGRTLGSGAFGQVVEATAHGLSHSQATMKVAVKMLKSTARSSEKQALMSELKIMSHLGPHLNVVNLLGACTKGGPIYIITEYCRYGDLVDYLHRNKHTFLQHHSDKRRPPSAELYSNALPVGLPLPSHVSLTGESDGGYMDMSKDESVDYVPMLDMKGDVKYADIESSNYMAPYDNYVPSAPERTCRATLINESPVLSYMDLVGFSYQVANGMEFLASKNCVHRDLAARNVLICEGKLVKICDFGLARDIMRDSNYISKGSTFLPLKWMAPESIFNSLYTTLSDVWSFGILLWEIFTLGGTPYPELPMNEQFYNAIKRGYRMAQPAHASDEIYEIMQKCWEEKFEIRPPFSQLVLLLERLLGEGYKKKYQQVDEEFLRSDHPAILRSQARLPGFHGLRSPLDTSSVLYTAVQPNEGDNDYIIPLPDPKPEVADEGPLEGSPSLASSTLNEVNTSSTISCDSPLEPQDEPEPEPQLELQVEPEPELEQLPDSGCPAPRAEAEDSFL

IC50 [1] | IC50 [2] | IC50 [3] | IC50 [4] | Structure (SMILES)
0.06 µM | – | – | – | Cc1[nH]c(/C=C2\C(=O)Nc3ccccc32)c(C)c1CCC(=O)O [ORANTINIB]
0.55 µM | 5.4 µM | > 100 µM | 8.29 µM | COc1ccc2c(c1)NC(=O)/C2=C\c1[nH]c(C)c(CCC(=O)O)c1C
2.22 µM | 7.33 µM | > 100 µM | 4.37 µM | COc1ccccc1-c1ccc2c(c1)NC(=O)/C2=C\c1[nH]c(C)c(CCC(=O)O)c1C
1 µM | 5.76 µM | > 100 µM | 0.52 µM | COc1ccc(-c2ccc3c(c2)NC(=O)/C3=C\c2[nH]c(C)c(CCC(=O)O)c2C)cc1
0.14 µM | 3.89 µM | > 100 µM | 1.35 µM | COc1ccc2c(c1)NC(=O)/C2=C\c1[nH]cc(CCC(=O)O)c1C
0.1 µM | 1.4 µM | > 100 µM | 0.3 µM | COc1cccc(-c2ccc3c(c2)NC(=O)/C3=C\c2[nH]c(C)c(CCC(=O)O)c2C)c1
0.06 µM | 2.05 µM | > 100 µM | 1.73 µM | Cc1[nH]c(/C=C2\C(=O)Nc3ccc(Br)cc32)c(C)c1CCC(=O)O

Further lines, the molecule ahead of its results:

Structure (SMILES) | IC50 [1] | IC50 [2] | IC50 [3] | IC50 [4]
COc1ccc(-c2ccc3c(c2)NC(=O)/C3=C\c2[nH]cc(CCC(=O)O)c2C)cc1 | 3.08 µM | 1.54 µM | > 100 µM | 0.45 µM
Cc1c[nH]c(/C=C2\C(=O)Nc3ccc(Br)cc32)c1CCC(=O)O | – | – | > 100 µM | –
CCOc1cccc(-c2ccc3c(c2)NC(=O)/C3=C\c2[nH]cc(C)c2CCC(=O)O)c1 | – | 4.5 µM | > 100 µM | –
Cc1c[nH]c(/C=C2\C(=O)Nc3ccccc32)c1CCC(=O)O | 0.51 µM | 0.03 µM | > 100 µM | 0.02 µM
Cc1c[nH]c(/C=C2\C(=O)Nc3cccc(C)c32)c1CCC(=O)O | – | – | > 100 µM | –
COc1cccc(-c2ccc3c(c2)NC(=O)/C3=C\c2[nH]cc(C)c2CCC(=O)O)c1 | 0.45 µM | 1.2 µM | > 100 µM | –
Cc1c(CCC(=O)O)c[nH]c1/C=C1\C(=O)Nc2ccc(S(N)(=O)=O)cc21 | 5.98 µM | 0.46 µM | > 100 µM | 0.92 µM
Cc1c(CCC(=O)O)c[nH]c1/C=C1\C(=O)Nc2ccc(C(=O)O)cc21 | 4.19 µM | 0.77 µM | > 100 µM | 0.24 µM
Cc1[nH]c(/C=C2\C(=O)Nc3ccc(S(N)(=O)=O)cc32)c(C)c1CCC(=O)O | 1.53 µM | 0.28 µM | – | 1.26 µM
Cc1c(CCC(=O)O)c[nH]c1/C=C1\C(=O)Nc2cc(-c3ccccc3)ccc21 | 0.16 µM | 1.05 µM | > 100 µM | 0.3 µM
COc1cccc(-c2ccc3c(c2)NC(=O)/C3=C\c2[nH]cc(CCC(=O)O)c2C)c1 | 0.17 µM | 0.36 µM | > 100 µM | 0.09 µM
Cc1[nH]c(/C=C2\C(=O)Nc3cc(-c4ccccc4)ccc32)c(C)c1CCC(=O)O | 0.01 µM | 2.29 µM | > 100 µM | 0.14 µM
Cc1c(CCC(=O)O)c[nH]c1/C=C1\C(=O)Nc2ccccc21 | 0.14 µM | 3.68 µM | > 100 µM | 2.14 µM
Cc1[nH]c(/C=C2\C(=O)Nc3ccc(C(=O)O)cc32)c(C)c1CCC(=O)O | 1.21 µM | 0.28 µM | > 100 µM | 0.07 µM
COc1ccccc1-c1ccc2c(c1)NC(=O)/C2=C\c1[nH]cc(CCC(=O)O)c1C | 1.42 µM | 2.13 µM | > 100 µM | 1.47 µM

Source: ChEMBL document CHEMBL1132535, “Design, synthesis, and evaluations of substituted 3-[(3- or 4-carboxyethylpyrrol-2-yl)methylidenyl]indolin-2-ones as inhibitors of VEGF, FGF, and PDGF receptor tyrosine kinases” (J Med Chem, 1999)
